The text below walks through data of patent US10031127B2, “Method for separating aggregates of malignant cells and aggregates from stromal cells of a malignant tumour tissue sample” (Flacod GmbH, priority 2012, dated 2018).

In experiment [1] the test system is isolated stromal cell clusters of malignant lung tumors. In words: chemosensitivity to cisplatin, isolated stromal cell clusters. The settings on record: isolated microscopically identified stromal cell clusters, in the absence of malignant cells; 3 days, 0-6000 nM cisplatin. The experiment is classed as cell-based. As to the method:
(§1) Samples were freshly resected from malignant lung tumors of various histologies, then purified and minced. Tumor tissue samples of 5 to 10 mg per 1 mL were suspended in RPMI 1640 culture medium with an FBS content of 10%. These suspensions were subjected to a collagenase digestion, preferably using Clostridium histolyticum collagenase (230 CDU/mL) for a period of 4 to 5 hours at 36° C. to 37° C., preferably at 36.5° C. Next the digested product was centrifuged at 50×g, the supernatant was discarded and the pellet was dissolved and resuspended in 1 mL fresh culture medium. Each test preparation was transferred to a Petri dish and adjusted with culture medium to a concentration corresponding to 5 to 10 mg tumor sample wet weight per 1 mL culture medium.
(§2) The cell suspension of each test preparation (test run) was picked up with a 1 mL pipette tip (another aspiration device can also be used) and then discharged again, 4 to 5 times in succession, and thereby subjected to a treatment with hydrodynamic shearing forces. Next, with the help of an inverse microscope equipped with a phase contrast lens system, cell clusters of phenotypically the same cells were detected and each was transferred to a separate culture vessel using injection cannulas no. 23 (diameter 0.6 mm, length 60-80 mm) attached to 2 mL injection syringes. […]

Experiment [2] concerns clusters of malignant cells and/or stromal cell clusters of malignant lung tumors (fractionated and unfractionated digestion products). In words: chemosensitivity to cisplatin, colony formation on ECM-coated culture plates. Format: cell-based. Particulars: 6000 nM cisplatin, 3 days incubation, most of the fractionated and unfractionated digestion products. As to the method:
as §1, §2

Consider `N.N.[Cl][Pt][Cl]` [cisplatin], for which the “cisplatin resistance of stromal cell clusters” value in experiment [1] is “often have cisplatin resistance even in the absence of malignant cells”. The “colony formation ex vivo in the presence of cisplatin” value in experiment [2] is “capable of forming colonies ex vivo even in the presence of 6000 nM cisplatin”.
